Counter-ions that a name gives are not always drawn.
What was measured:
rats [1] = conditions: ref You et al., 2017, cited from earlier work
[2] = ref Higley et al., 2011, Maramai et al., 2016, Nathan et al., 2012, Stossel et al., 2017, Thanos et al., 2008, Thomsen et al., You et al.; cited from earlier work
[3] = ref Xi and Gardner, 2007; cited from earlier work
rats [4] = experiment: Hot plate thermal nociception test; type: in vivo, rat
[5] = Phase I metabolic stability in rat liver microsomes; type: in vitro ADME; conditions: rat liver microsomes fortified with NADPH, 60 min incubation, 10 μM compound
Long-Evans rats [6] = experiment: Oxycodone self-administration under FR1 reinforcement; type: in vivo, rat
DAT-Cre mice = experiment: Optical intracranial self-stimulation; type: in vivo, mouse; conditions: for effect on oICSS: 5 min prior to testing, vs vehicle
wild-type C57BL/6J mice = experiment: Sucrose self-administration; type: in vivo, mouse
rats [7] = experiment: Open-field locomotor activity; type: in vivo, rat; conditions: 10 or 20 mg/kg i.p., vs vehicle
[8] = Pharmacokinetic study in rats, plasma and brain; type: in vivo; conditions: rat, plasma, po, 10 mg/kg
Long-Evans rats [9] = experiment: Oxycodone self-administration under progressive-ratio; conditions: 20 mg/kg i.p., normalized to baseline, vs vehicle
rats [10] = conditions: ref Ashby et al., 2003; cited from earlier work

## CCc1cc(Cl)c(OC)c(N2CCN(CC(O)CCNC(=O)c3cc4ccccc4[nH]3)CC2)c1 (racemic) [(±)VK4-116]
Rats [1]; FR1 and PR schedules
  effect on oxycodone self-administration: dose-dependently inhibited oxycodone self-administration
Rats [1]
  effect on oxycodone-triggered reinstatement of drug-seeking: suppressed oxycodone-triggered reinstatement of drug-seeking behavior

## Cc1ncoc1-c1nnc(SCCCN2C[C@@H]3C[C@]3(c3ccc(C(F)(F)F)cc3F)C2)n1C [GSK598809]
[2]
  effect on food-taking and food-seeking behavior: significantly inhibit food-taking and food-seeking behavior

## O=C(NCCCCN1CCN(c2cccc(Cl)c2Cl)CC1)c1ccc2c(c1)Cc1ccccc1-2 [NGB-2904]
[3]
  effect on cocaine-induced extracellular nucleus accumbens DA: enhanced cocaine-induced increases in extracellular nucleus accumbens DA
[2]
  effect on food-taking and food-seeking behavior: significantly inhibit food-taking and food-seeking behavior

## O=C(NC/C=C/CN1CCN(c2cccc(Cl)c2Cl)CC1)c1ccc(-c2ccccn2)cc1 [PG01037]
[2]
  effect on food-taking and food-seeking behavior: significantly inhibit food-taking and food-seeking behavior

## CCc1cccc(N2CCN(C[C@H](O)CCNC(=O)c3cc4ccccc4[nH]3)CC2)c1Cl.Cl [R-VK4-40, (R)-N-(4-(4-(2-Chloro-3-ethylphenyl)piperazin-1-yl)-3-hydroxybutyl)-1H-indole-2-carboxamide HCl]
Rats [4]; 20 mg/kg i.p., after 1 mg/kg oxycodone
  effect of pretreatment on %MPE: significant elevation of %MPE
Rats [4]; 10 or 20 mg/kg i.p. 30 min before oxycodone 0.5-4 mg/kg i.p.
  effect of pretreatment on oxycodone analgesia dose-response curve: shifted the oxycodone dose-response curve significantly upward
[5]
  % intact remaining: 86±2%
Long-Evans rats [6]; FR1, 10 or 20 mg/kg i.p. 30 min before session, oxycodone 0.0031-0.05 mg/kg/infusion
  effect on oxycodone self-administration (infusions earned): dose-dependent reduction in oxycodone self-administration
Long-Evans rats [6]; FR1, 10 or 20 mg/kg i.p. pretreatment
  effect on daily oxycodone intake: reduced oxycodone intake at the 0.00625 and 0.05 mg/kg doses
Long-Evans rats [6]; FR1 oxycodone self-administration
  effect on inactive lever responding: no effect on inactive lever responding
DAT-Cre mice; R-VK4-40 alone i.p. (10, 20 mg/kg as printed elsewhere in the source)
  effect on oICSS, compound alone: significant reduction in oICSS
DAT-Cre mice; pretreatment before 1 mg/kg oxycodone
  effect of pretreatment on oxycodone-enhanced oICSS: significantly reduced low-dose (1 mg/kg) oxycodone enhancements in oICSS
wild-type C57BL/6J mice; 3 mg/kg i.p., vs vehicle
  effect on number of sucrose reinforcers earned: no statistically significant differences
wild-type C57BL/6J mice; 10 mg/kg i.p., vs vehicle and 3 mg/kg
  effect on number of sucrose reinforcers earned: significantly reduced the number of sucrose reinforcers earned
Rats [7]
  effect on open-field locomotion: no effect on open-field locomotion
[8]
  AUC(0-t): 1990 ± 280 nM·h
  Cmax: 0.31 ± 0.11 µM
Long-Evans rats [9]
  effect on PR break-point for oxycodone self-administration: significant decrease in break-point

## N#Cc1ccc2c(c1)CCN(CCC1CCC(NC(=O)c3ccnc4ccccc34)CC1)C2 (stereo not shown) [SB-277011A]
Rats [10]
  effect on opioid-induced conditioned place preference: significantly inhibits opioid-induced conditioned place preferences (CPP)
[2]
  effect on food-taking and food-seeking behavior: significantly inhibit food-taking and food-seeking behavior

## COc1ccc2c3c1O[C@H]1C(=O)CC[C@@]4(O)[C@@H](C2)N(C)CC[C@]314 [oxycodone, Oxycodone HCl, reference compound]
Rats [4]; hot plate, after administration
  time of peak antinociceptive effect: 30 min
DAT-Cre mice; 1 mg/kg i.p.
  effect on oICSS: significant increase in oICSS
DAT-Cre mice; 3 mg/kg i.p.
  effect on oICSS: significant reduction in oICSS

— publication PMC6745270 (Neuropharmacology, 2019)
